Results reported in ChEMBL document CHEMBL1201862, “PubChem BioAssay data set” (2004).
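Briefly, cells in 96-well plates were exposed to five compound concentrations for 48 h, and endpoints were estimated by linear interpolation. Here, GI50 denotes the concentration required for 50% inhibition of growth.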 Calls of active or inactive are those of the source. Cut-off read from the data, not from the text of the source: active = GI50 up to about 1.1 µM and inactive = higher.

Legend:
Assay in all cases: NCI anticancer screen, dose series, 48 h
HOP-62 = tested on: HOP-62
SW-620 = tested on: SW-620
NCI-H522 = tested on: NCI-H522
SK-OV-3 = tested on: SK-OV-3
SK-MEL-28 = tested on: SK-MEL-28
CCRF-CEM = tested on: CCRF-CEM
OVCAR-4 = tested on: OVCAR-4
LOX IMVI = tested on: LOX IMVI
COLO 205 = tested on: COLO 205
TK-10 = tested on: TK-10
IGROV-1 = tested on: IGROV-1
SNB-19 = tested on: SNB-19
A549 = tested on: A549
EKVX = tested on: EKVX
MOLT-4 = tested on: MOLT-4
U-251 = tested on: U-251
KM-20L2 = tested on: KM-20L2
SN12C = tested on: SN12C

Row | SMILES | GI50 (HOP-62) | GI50 (SW-620) | GI50 (NCI-H522) | GI50 (SK-OV-3) | GI50 (SK-MEL-28) | GI50 (CCRF-CEM) | GI50 (OVCAR-4) | GI50 (LOX IMVI) | GI50 (COLO 205) | GI50 (TK-10) | GI50 (IGROV-1) | GI50 (SNB-19) | GI50 (A549) | GI50 (EKVX) | GI50 (MOLT-4) | GI50 (U-251) | GI50 (KM-20L2) | GI50 (SN12C)
1 | O=[N+]([O-])c1ccc2nc3ccscc-3c2c1 | 17.9 µM (inactive) | 7.08 µM (inactive) | 12.4 µM (inactive) | 30.7 µM (inactive) | 27.8 µM (inactive) | 5 µM (inactive) | 15.5 µM (inactive) | 18.7 µM (inactive) | 18.5 µM (inactive) | 20.9 µM (inactive) | 27.4 µM (inactive) | 6.98 µM (inactive) | 18.3 µM (inactive) | 9.93 µM (inactive) | 5.87 µM (inactive) | 7.76 µM (inactive) | 25.2 µM (inactive) | 
2 | Cc1cc(N(CCC#N)CCC#N)ccc1/N=N/c1ccc([N+](=O)[O-])cc1 | > 100 µM (inactive) | > 10 µM (inactive) | > 100 µM (inactive) | > 10 µM (inactive) | > 100 µM (inactive) | > 100 µM (inactive) | 19.7 µM (inactive) | 25.1 µM (inactive) | > 100 µM (inactive) | 39.8 µM (inactive) |  | 22 µM (inactive) | > 100 µM (inactive) | > 100 µM (inactive) | > 100 µM (inactive) | 18.6 µM (inactive) | > 100 µM (inactive) | 65.8 µM (inactive)
3 | NC(CCc1nc(-c2ccc(Cl)cc2)cs1)C(=O)O (stereo not given) | > 100 µM (inactive) | > 100 µM (inactive) | > 100 µM (inactive) | > 100 µM (inactive) | > 100 µM (inactive) | > 100 µM (inactive) | > 100 µM (inactive) | > 100 µM (inactive) | > 100 µM (inactive) | > 100 µM (inactive) | > 100 µM (inactive) | > 100 µM (inactive) | > 100 µM (inactive) | > 100 µM (inactive) | > 100 µM (inactive) | > 100 µM (inactive) | > 100 µM (inactive) | > 100 µM (inactive)
4 | CCOC(=O)C(=O)Nc1c(C)cccc1CC | > 100 µM (inactive) | > 100 µM (inactive) | > 100 µM (inactive) | > 100 µM (inactive) | > 100 µM (inactive) | > 100 µM (inactive) | > 100 µM (inactive) | > 100 µM (inactive) |  | > 100 µM (inactive) | > 100 µM (inactive) | > 100 µM (inactive) | > 100 µM (inactive) | > 100 µM (inactive) | > 100 µM (inactive) | > 100 µM (inactive) | > 100 µM (inactive) | > 100 µM (inactive)
5 | N#CN1CCC=C(c2cc3ccccc3[nH]2)C1 | > 448 µM (inactive) | 414 µM (inactive) | 109 µM (inactive) | > 448 µM (inactive) | 382 µM (inactive) | 188 µM (inactive) |  | 230 µM (inactive) | 388 µM (inactive) | > 448 µM (inactive) | 277 µM (inactive) | > 448 µM (inactive) | 394 µM (inactive) | 270 µM (inactive) | 230 µM (inactive) | 434 µM (inactive) | > 448 µM (inactive) | 356 µM (inactive)
6 | CC(=O)NC(CCCN(Cc1ccccc1)C(=O)N(CCCl)N=O)C(=O)NCc1ccccc1 (stereo not given) | 7.24 µM (inactive) | 16.2 µM (inactive) | 57.1 µM (inactive) | 55.6 µM (inactive) | 78.3 µM (inactive) | 23 µM (inactive) | > 95.3 µM (inactive) | 2.92 µM (inactive) | > 64.7 µM (inactive) | > 85.5 µM (inactive) | 44.4 µM (inactive) | 17.8 µM (inactive) | 16.1 µM (inactive) | > 72.9 µM (inactive) | 9.4 µM (inactive) | 10.9 µM (inactive) | 59.6 µM (inactive) | 46.3 µM (inactive)
7 | NC(=S)N/N=C(\CC1OC(=O)c2ccccc21)c1ccc(Cl)cc1 (stereo not given) | 23.2 µM (inactive) | 44.8 µM (inactive) | 20.9 µM (inactive) | 42.8 µM (inactive) | 45.8 µM (inactive) |  | 23.1 µM (inactive) | 27.8 µM (inactive) | 38.6 µM (inactive) | 76.9 µM (inactive) | 40.3 µM (inactive) | 42.7 µM (inactive) | 48.2 µM (inactive) |  | 61.5 µM (inactive) | 22.5 µM (inactive) | 47 µM (inactive) | 35.2 µM (inactive)
8 | O=C1N2Cc3c4ccc5c3CN3C(=O)N6Cc7c(ccc(c7CN1C6(c1ccccc1)C23c1ccccc1)OCCOCCNCCOCCO4)OCCOCCNCCOCCO5 (stereo not given) | > 100 µM (inactive) | 18 µM (inactive) | > 100 µM (inactive) | 85.9 µM (inactive) | > 100 µM (inactive) | 23.2 µM (inactive) | > 100 µM (inactive) |  |  | 26.9 µM (inactive) | 65.8 µM (inactive) | > 100 µM (inactive) | 28.6 µM (inactive) | > 100 µM (inactive) | 19.7 µM (inactive) | 28.9 µM (inactive) | 52.4 µM (inactive) | 19.5 µM (inactive)
9 | COc1cc(C(=O)CC2(O)C(=O)Nc3c(Cl)cc(Cl)cc32)ccc1O (stereo not given) | 37.5 µM (inactive) | 71.6 µM (inactive) | 47.8 µM (inactive) | 14.9 µM (inactive) | > 100 µM (inactive) | 36.6 µM (inactive) | 60.8 µM (inactive) | > 100 µM (inactive) | 28.7 µM (inactive) | > 100 µM (inactive) |  | 76.7 µM (inactive) | 55 µM (inactive) | 94 µM (inactive) | 26.3 µM (inactive) | 69 µM (inactive) | 61.4 µM (inactive) | > 100 µM (inactive)
10 | COCOCC/C=C/C=O |  | > 100 µM (inactive) | > 100 µM (inactive) | > 100 µM (inactive) | > 100 µM (inactive) | > 100 µM (inactive) |  | > 100 µM (inactive) | > 100 µM (inactive) | > 100 µM (inactive) | > 100 µM (inactive) | > 100 µM (inactive) | > 100 µM (inactive) | > 100 µM (inactive) | > 100 µM (inactive) | > 100 µM (inactive) | > 100 µM (inactive) | > 100 µM (inactive)
11 | CN(C)CCn1cnc2sc3ccccc3c21 | > 100 µM (inactive) | > 100 µM (inactive) | > 100 µM (inactive) | > 100 µM (inactive) | > 100 µM (inactive) | > 100 µM (inactive) | > 100 µM (inactive) | > 100 µM (inactive) | > 100 µM (inactive) | > 100 µM (inactive) | > 100 µM (inactive) | > 100 µM (inactive) | > 100 µM (inactive) | > 100 µM (inactive) | > 100 µM (inactive) | > 100 µM (inactive) | > 100 µM (inactive) | > 100 µM (inactive)
12 | CCCN(CCCC(NC(C)=O)C(=O)NCc1ccccc1)C(=O)NC (stereo not given) | > 100 µM (inactive) | > 100 µM (inactive) | > 100 µM (inactive) | > 100 µM (inactive) | > 100 µM (inactive) | > 100 µM (inactive) | > 100 µM (inactive) | > 100 µM (inactive) | > 100 µM (inactive) | > 100 µM (inactive) | > 100 µM (inactive) | > 100 µM (inactive) | > 100 µM (inactive) | > 100 µM (inactive) | > 100 µM (inactive) | > 100 µM (inactive) | > 100 µM (inactive) | > 100 µM (inactive)
13 | COc1ccccc1NC(=O)C(CC(C(=O)Nc1ccccc1OC)/C(C)=N/Nc1ccc([N+](=O)[O-])cc1[N+](=O)[O-])/C(C)=N/Nc1ccc([N+](=O)[O-])cc1[N+](=O)[O-] (stereo not given) | > 95.5 µM (inactive) | > 94.8 µM (inactive) | > 73.1 µM (inactive) | > 92.7 µM (inactive) | > 83.2 µM (inactive) | 63.5 µM (inactive) | > 81.3 µM (inactive) | 40.2 µM (inactive) | 69 µM (inactive) | 14.6 µM (inactive) | 54.5 µM (inactive) | > 100 µM (inactive) | > 65.5 µM (inactive) | > 88.7 µM (inactive) | 1.7 µM (inactive) | > 100 µM (inactive) | > 100 µM (inactive) | > 100 µM (inactive)
14 | CCN(C(=N)C#N)c1ccccc1 | > 100 µM (inactive) | 20.5 µM (inactive) | > 100 µM (inactive) | > 100 µM (inactive) | > 100 µM (inactive) | > 54.5 µM (inactive) | > 100 µM (inactive) | 47.2 µM (inactive) | > 95.3 µM (inactive) | > 100 µM (inactive) | > 100 µM (inactive) | > 100 µM (inactive) | > 100 µM (inactive) | > 100 µM (inactive) | > 100 µM (inactive) | 65.9 µM (inactive) | > 100 µM (inactive) | > 100 µM (inactive)
15 | O=c1c2ccccc2nc2n1-c1ccccc1SC2 | > 100 µM (inactive) | > 100 µM (inactive) | 20.5 µM (inactive) | > 100 µM (inactive) | 71.3 µM (inactive) | 38.8 µM (inactive) | 64.3 µM (inactive) | > 100 µM (inactive) | 92.9 µM (inactive) | > 100 µM (inactive) | 66.5 µM (inactive) | > 100 µM (inactive) | > 100 µM (inactive) | 25.5 µM (inactive) | 21.4 µM (inactive) | 84.7 µM (inactive) | > 100 µM (inactive) | 51.2 µM (inactive)
16 | Cc1cc(C2CCCCC2)n(O)c(=O)c1 [CICLOPIROX OLAMINE] |  | 5.85 µM (inactive) | 2.96 µM (inactive) | 47 µM (inactive) | 12.6 µM (inactive) | 1.1 µM (active) |  | 11.9 µM (inactive) | 39.4 µM (inactive) | 37.1 µM (inactive) | 3.46 µM (inactive) | 11.6 µM (inactive) | 3.91 µM (inactive) | 4.04 µM (inactive) | 1.93 µM (inactive) | 0.498 µM (active) | 12 µM (inactive) | 12.5 µM (inactive)
